Laboratory results published in ChEMBL document CHEMBL3769323, “Design, synthesis and bioevaluation of tacrine hybrids with cinnamate and cinnamylidene acetate derivatives as potential anti-Alzheimer drugs” (Medchemcomm, 2015).
pEC50, pIC50: −log10 of the molar value. The source made the active and inactive calls. The calls are words filed in the database; no cut-off is given here.

Assays:
[1] = test system: SH-SY5Y; test: Cytotoxicity against human SH-SY5Y cells assessed as cell viability at 1.5 uM after 25 hrs by MTT assay relative to control; format: cell-based
[2] = Antioxidant activity assessed as DPPH radical scavenging activity at 1 mM after 30 mins; format: physicochemical; settings: 0.5 h, 1000 µM
[3] = target: Acetylcholinesterase (Electrophorus electricus, UniProt O42275); test: Inhibition of electric eel AChE preincubated for 15 mins followed by addition of acetylcholine iodide as substrate by Ellman's assay
[4] = test system: SH-SY5Y; test: Cytotoxicity against human SH-SY5Y cells assessed as cell viability at 1.5 to 5 uM after 25 hrs by MTT assay; format: cell-based
[5] = Cytotoxicity against ovarian cancer cells (unknown origin); format: cell-based; settings: Cancer cell lines
[6] = target: Amyloid-beta precursor protein (Homo sapiens) (UniProt P05067); test: Inhibition of Amyloid beta (1 to 42) (unknown origin) self-induced aggregation at 80 uM for 24 hrs by Thioflavin T-based fluorometric assay
[7] = test system: SH-SY5Y; test: Cytotoxicity against human SH-SY5Y cells assessed as cell viability at 2.5 uM after 25 hrs by MTT assay relative to control; format: cell-based
[8] = Antioxidant activity assessed as DPPH radical scavenging activity after 30 mins; format: physicochemical
[9] = test system: SH-SY5Y; test: Neuroprotective activity against human SH-SY5Y cells assessed as reduction of H2O2-induced oxidative stress at 5 uM preincubated with compound for 1 hr followed by H2O2 addition for 24 hrs by MTT reduction assay; format: functional, cell-based
[10] = test system: SH-SY5Y; test: Neuroprotective activity against human SH-SY5Y cells assessed as reduction of Amyloid beta 42-induced cytotoxicity at 2.5 uM preincubated with compound for 1 hr followed by Amyloid beta 42 peptide addition for 24 hrs by MTT reduction assay; format: functional, cell-based
[11] = test system: SH-SY5Y; test: Neuroprotective activity against human SH-SY5Y cells assessed as reduction of H2O2-induced oxidative stress at 2.5 uM preincubated with compound for 1 hr followed by H2O2 addition for 24 hrs by MTT reduction assay; format: functional, cell-based

Acetylcholinesterase, sequence (O42275 whole entry): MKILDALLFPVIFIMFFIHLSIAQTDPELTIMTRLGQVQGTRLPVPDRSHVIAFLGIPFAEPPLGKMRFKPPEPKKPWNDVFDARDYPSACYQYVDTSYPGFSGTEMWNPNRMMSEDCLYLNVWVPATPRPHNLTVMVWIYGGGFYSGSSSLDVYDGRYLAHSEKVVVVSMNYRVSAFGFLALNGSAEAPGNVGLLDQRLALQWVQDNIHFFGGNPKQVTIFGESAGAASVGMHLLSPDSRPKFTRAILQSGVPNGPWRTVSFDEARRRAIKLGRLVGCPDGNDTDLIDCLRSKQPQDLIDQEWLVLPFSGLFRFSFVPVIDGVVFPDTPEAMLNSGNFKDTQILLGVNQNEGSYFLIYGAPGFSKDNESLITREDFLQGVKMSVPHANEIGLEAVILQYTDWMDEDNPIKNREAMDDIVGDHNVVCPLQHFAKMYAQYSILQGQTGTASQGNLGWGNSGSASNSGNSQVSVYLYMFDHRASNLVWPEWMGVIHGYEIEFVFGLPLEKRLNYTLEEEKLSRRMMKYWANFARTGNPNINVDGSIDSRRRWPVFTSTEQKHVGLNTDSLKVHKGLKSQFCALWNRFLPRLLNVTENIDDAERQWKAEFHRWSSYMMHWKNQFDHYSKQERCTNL
Amyloid-beta precursor protein (Homo sapiens), sequence (P05067 whole entry): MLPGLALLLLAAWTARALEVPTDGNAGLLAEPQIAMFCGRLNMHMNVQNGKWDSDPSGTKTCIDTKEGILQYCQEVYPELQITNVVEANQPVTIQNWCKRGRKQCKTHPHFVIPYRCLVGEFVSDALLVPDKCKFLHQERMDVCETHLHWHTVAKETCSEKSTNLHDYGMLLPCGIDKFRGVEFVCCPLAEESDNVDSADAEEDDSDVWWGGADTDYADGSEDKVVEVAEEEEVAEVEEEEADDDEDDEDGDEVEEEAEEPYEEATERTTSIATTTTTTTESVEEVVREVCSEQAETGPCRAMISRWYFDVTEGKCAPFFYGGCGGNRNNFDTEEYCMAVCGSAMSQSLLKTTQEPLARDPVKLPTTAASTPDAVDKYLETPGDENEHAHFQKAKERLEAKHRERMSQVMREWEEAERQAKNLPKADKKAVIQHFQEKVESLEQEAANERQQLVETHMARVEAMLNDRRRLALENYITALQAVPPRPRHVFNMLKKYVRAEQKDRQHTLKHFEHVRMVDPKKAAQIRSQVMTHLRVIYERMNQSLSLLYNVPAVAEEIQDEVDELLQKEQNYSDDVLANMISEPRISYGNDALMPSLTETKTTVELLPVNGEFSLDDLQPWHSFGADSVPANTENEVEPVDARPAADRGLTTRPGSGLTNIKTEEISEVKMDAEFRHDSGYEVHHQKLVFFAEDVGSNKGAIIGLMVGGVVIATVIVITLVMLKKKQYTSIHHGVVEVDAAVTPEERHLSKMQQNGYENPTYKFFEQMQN

| SMILES | Activity [2] [%] | pIC50 [3] | Activity [4] | further results |
| --- | --- | --- | --- | --- |
| O=C(/C=C/C=C/c1ccccc1)NCCCCNc1c2c(nc3ccccc13)CCCC2 | 23 | 6.21 |  | Activity [1]: Toxic |
| O=C(/C=C/C=C/c1ccc2c(c1)OCO2)NCCNc1c2c(nc3ccccc13)CCCC2 | 26.2 | 6.52 | Toxic | Activity [1]: Toxic |
| O=C(/C=C/c1ccc2c(c1)OCO2)NCCCNc1c2c(nc3ccccc13)CCCC2 | 15.4 | 6.89 | Toxic | pIC50 [5]: 5.24; inhibition [6]: 8.27% |
| O=C(/C=C/C=C/c1ccccc1)NCCCNc1c2c(nc3ccccc13)CCCC2 | 16.9 | 6.54 | Toxic |  |
| O=C(/C=C/c1ccccc1)NCCCNc1c2c(nc3ccccc13)CCCC2 | 16.3 | 6.42 | Toxic | Activity [7]: Toxic |
| O=C(/C=C/C=C/c1ccc(O)c(O)c1)NCCNc1c2c(nc3ccccc13)CCCC2 |  | 5.96 | Non-toxic | pEC50 [8]: 5.02; Activity [9]: Active |
| O=C(/C=C/c1ccc(O)c(O)c1)NCCNc1c2c(nc3ccccc13)CCCC2 |  | 6.08 | Toxic | pEC50 [8]: 4.91 |
| O=C(/C=C/c1ccc2c(c1)OCO2)NCCCCNc1c2c(nc3ccccc13)CCCC2 | 18.6 | 6.14 | Toxic |  |
| O=C(/C=C/c1ccc2c(c1)OCO2)NCCNc1c2c(nc3ccccc13)CCCC2 | 12.2 | 6.74 | Toxic | inhibition [6]: 30.9% |
| O=C(/C=C/c1ccccc1)NCCNc1c2c(nc3ccccc13)CCCC2 | 7.9 | 6.11 | Toxic |  |
| O=C(/C=C/C=C/c1ccc2c(c1)OCO2)NCCCNc1c2c(nc3ccccc13)CCCC2 | 20.8 | 6.89 | Toxic | pIC50 [5]: 5.60; inhibition [6]: 72.2% |
| O=C(/C=C/c1ccccc1)NCCCCNc1c2c(nc3ccccc13)CCCC2 | 22.5 | 6.07 |  | Activity [10]: Active |
| COc1ccc(/C=C/C(=O)NCCCCNc2c3c(nc4ccccc24)CCCC3)cc1OC | 16.1 | 6.41 |  |  |
| COc1ccc(/C=C/C(=O)NCCCNc2c3c(nc4ccccc24)CCCC3)cc1OC | 16.8 | 7.05 |  | pIC50 [5]: 4.71; inhibition [6]: 56.5%; Activity [11]: Active |
| O=C(/C=C/C=C/c1ccc(O)c(O)c1)NCCCNc1c2c(nc3ccccc13)CCCC2 |  | 6.32 | Non-toxic | pEC50 [8]: 5.04 |
| COc1ccc(/C=C/C(=O)NCCNc2c3c(nc4ccccc24)CCCC3)cc1OC | 8.8 | 7.05 |  | pIC50 [5]: 4.98; inhibition [6]: 19.6%; Activity [11]: Active; Activity [10]: Active |
| O=C(/C=C/C=C/c1ccccc1)NCCNc1c2c(nc3ccccc13)CCCC2 | 15.6 | 6.49 | Toxic | Activity [1]: Toxic |
| O=C(/C=C/c1ccc(O)c(O)c1)NCCCNc1c2c(nc3ccccc13)CCCC2 |  | 6.01 | Toxic | pEC50 [8]: 4.95; Activity [9]: Active |
